In US11613753B2, “Methods and pharmaceutical compositions for treating tubulin carboxypeptidases associated diseases” (LES LABORATOIRES SERVIER, priority 2017, dated 2023):
Entries after “also recorded” stand apart in the source; their conditions may differ.

Biological target: T1, brain TCP (fraction IV) (Mus musculus, UniProt Q8C1W1)
T1 construct: from tissue; host or cells: adult mouse brain, fraction IV (ammonium sulfate cut, Hitrap Q XL flow-through, Hitrap SP XL eluate)
T1 sequence (Q8C1W1 1-375): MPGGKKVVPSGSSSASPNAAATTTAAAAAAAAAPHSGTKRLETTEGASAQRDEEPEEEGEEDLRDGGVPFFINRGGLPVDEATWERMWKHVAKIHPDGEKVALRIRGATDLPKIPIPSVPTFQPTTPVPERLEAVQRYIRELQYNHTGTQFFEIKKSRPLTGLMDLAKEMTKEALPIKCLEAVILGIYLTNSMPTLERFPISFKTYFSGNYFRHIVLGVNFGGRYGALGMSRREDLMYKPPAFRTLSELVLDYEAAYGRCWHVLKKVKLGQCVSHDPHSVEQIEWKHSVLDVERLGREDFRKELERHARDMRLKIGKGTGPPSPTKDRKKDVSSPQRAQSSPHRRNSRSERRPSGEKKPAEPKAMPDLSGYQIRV
T1 sequence (Q99LQ4 1-66 partner): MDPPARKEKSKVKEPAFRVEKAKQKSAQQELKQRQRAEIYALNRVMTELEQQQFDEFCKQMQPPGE
Test: TCP activity assay, radioactivity test with [14C]-tyrosinated taxol-stabilized microtubules, on enriched brain fraction IV
Type: biochemical
Conditions: FIG. 1B
Experimental: Preparation of tyrosinated tubulin and microtubule, and EB1. Bovine brain tubulin (12 mg/mL, prepared as in (S. Ramirez-Rios et al., (2016) Molecular biology of the cell 27, 2924) was tyrosinated by incubation for 45 min at 30° C. with purified chicken TTL (1 mg/mL, gift from Steinmetz group) and 0.1 mM L-tyrosine or [14C]-L-tyrosine (0.125 μCi/mole) in 40 mM Pipes at pH 6.7, 60 mM KCl, 2.5 mM ATP, 1 mM DTT, 12.5 mM MgCl2. Microtubules polymerization was allowed by one-third dilution in 100 mM PIPES at pH 6.7. 1 mM EGTA, 1 mM MgCl2, 30% glycerol, 1 mM GTP and incubation at 32° C. for 45 min, followed by another 45 min incubation with 50 μM Paclitaxel (Calbiochem). Microtubules were sedimented by 25 min centrifugation at 100,000 g and 30° C. on 60% glycerol cushions. TTL-containing supernatant was discarded and tyrosinated-microtubules were resuspended in 100 mM PIPES at pH 6.7, 1 mM EGTA, 1 mM MgCl2, 10% glycerol, 80 μM paclitaxel and stored at −20° C. To obtain unpolymerized tyrosinated-tubulin, paclitaxel was omitted during the whole procedure. EB1 was prepared as in S. Ramirez-Rios et al., (2016) Molecular biology of the cell 27, 2924.
TCP activity assays. In radioactivity tests using [14C]-tyrosinated taxol-stabilized microtubule, enzyme activity was measured in 100 mM MES at pH 6.7. 1 mM EGTA and 1 mM MgCl2 using 2 μM radiolabeled tubulin, except in FIGS. 2D and S2D (as indicated in legend). Reactions were performed for 45 min at 37° C. (without or with previous incubation with inhibitors, see legends) and were stopped on ice by addition of 20 μg/ml bovine serum albumin and 10% perchloric acid and centrifugation. Tyrosine cleaved from microtubules was estimated by measuring radioactivity in the supernatant (a zero time control was subtracted). To compose the table of Fig. S1A, detyrosination activity from equal volumes of the various fractions was measured. In tests with inhibitors, detyrosination activity was tested after a 20 min preincubation with inhibitor (except in Figs. S2C and S2) where varying time of incubation were used as indicated in legend), and results with inhibitors were expressed as percentage of the activity in the control with corresponding solvent. In tests using Western-blots, enzyme activity was assayed with 5 μM substrates (taxol-stabilized microtubule, tubulin or EB1) in 100 mM MES at pH 6.7. Positive controls were done with carboxypeptidase A (2 ng/mL). Reactions were stopped by addition of Laemmli buffer. A reaction with carboxypeptidase A (CPA), which efficiently cleaves aromatic and aliphatic C-terminal residues, was used as positive control. In tests using VASH/SVBP complexes purified on cobalt resin from HEK293T cells, enzymes concentration were approximated from in-gel Coomassie-blue staining of purified VASH1 and VASH2 together with standards of bovine serum albumin.
Enzyme enrichment. We designed a three-step purification procedure from brain lysate inspired from previous efforts (N. Kumar, M. Flavin, (1981) The Journal of biological chemistry 256, 7678; C. E. Argarana, H. S. Barra, R. Caputto, (1980) Journal of neurochemistry 34, 114). All steps were carried out at 4° C. Adult mice brains were homogenized in 50 mM phosphate buffer at pH 6.7, 1 mM EGTA, 1 mM MgCl2, 1 μg/ml DNAse with a protease inhibitor cocktail (cOmplete EDTA-free, Roche) and centrifuged 1 h at 100.000 g. The supernatant was collected (Fraction 1). In step 1 (ammonium sulfate fractionation), Fraction 1 was slowly brought to 45% ammonium sulfate, incubated for 15 min and centrifuged 20 min at 15,000 g. Resulting supernatant underwent the same procedure at 65% ammonium sulfate. The pellet was re-suspended in one-eighth of initial volume with 50 mM MES pH 6.7, 1 mM EGTA, 1 mM MgCl2 and desalted using Bio-Gel P30 (Bio-Rad) equilibrated with the same buffer (Fraction 11). […]

SMILES | Inhibition of brain TCP activity (in words) | IC50, inhibition of TCP activity (20 min preincubation with inhibitor) | IC50 (20 min preincubation with inhibitor, read-out: IC50, inhibition of TCP activity)
NCCc1ccc(S(=O)(=O)F)cc1 [AEBSF] | inhibited |  | 
CC(C)C[C@H](NC(=O)[C@H]1O[C@@H]1C(=O)O)C(=O)NCCCCN=C(N)N [E-64] | inhibited; also recorded: modest inhibitory activity | 300 µM | 
CCOC(=O)[C@H]1O[C@@H]1C(=O)N[C@@H](Cc1ccc(O)cc1)C(=O)O [EpoY] | most potent inhibitor |  | ~0.5 µM
CCN1C(=O)C=CC1=O [N-Ethylmaleimide] | inhibited |  | 
